The test concerns the target T1, GLUT5S72Y (Homo sapiens, UniProt P22732, S72Y).
T1 construct: expressed in transfected cells; host or cells: Saccharomyces cerevisiae hxt0 strain EBY.VW4000
T1 sequence (P22732 1-501 S72Y): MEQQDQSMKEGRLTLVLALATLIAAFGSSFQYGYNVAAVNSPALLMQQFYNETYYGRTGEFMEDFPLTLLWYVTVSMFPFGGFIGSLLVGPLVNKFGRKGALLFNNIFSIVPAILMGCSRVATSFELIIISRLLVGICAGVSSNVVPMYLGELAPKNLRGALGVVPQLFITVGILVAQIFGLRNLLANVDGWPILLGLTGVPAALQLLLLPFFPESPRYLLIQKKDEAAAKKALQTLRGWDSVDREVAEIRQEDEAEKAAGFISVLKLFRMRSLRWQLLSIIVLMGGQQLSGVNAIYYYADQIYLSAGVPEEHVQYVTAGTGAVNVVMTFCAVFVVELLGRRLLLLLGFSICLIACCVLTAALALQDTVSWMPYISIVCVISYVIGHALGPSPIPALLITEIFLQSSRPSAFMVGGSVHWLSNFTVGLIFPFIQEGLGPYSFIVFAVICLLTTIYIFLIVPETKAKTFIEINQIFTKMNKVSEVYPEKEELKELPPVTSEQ
As to the kind of experiment: Fructose transport assay, GLUT5S72Y expressed in hxt^0 yeast cells EBY.VW4000. Type of test: cell-based. Particulars: GLUT5S72Y in hxt^0 yeast cells, 10 mM fructose; read-out: IC50 for GLUT5 transport inhibition. The text has this:
The most studied GLUTs are Class 1 GLUTs (GLUT1-4) and a Class 2 GLUT, GLUT5 (a fructose-only transporter). GLUT3 sequence homology and identity is 79% and 64%, 71% and 52%, 74% and 57%, and 60% and 38% with GLUT1, GLUT2, GLUT4, and GLUT5, respectively. The hxt^0 yeast cell systems expressing functional GLUT1-4[65],[69] and GLUT5[66] allow us to determine the in vivo transport activity (substrate uptake by a GLUT into whole cells) for individual GLUTs and establish GLUT3 inhibitor selectivity for these transporters. […] Given the higher sequence similarity within Class 1 GLUTs, we expected GLUT3 inhibitors to affect Class 1 GLUTs much more than GLUT5. Indeed, G3iA-G3iF reduced the transport activities of some of the other Class 1 GLUTs (Fig. 3A–C, Table 2, Supplementary Fig. S6). […] For example, G3iB was an equipotent inhibitor of GLUT4, while G3iD and G3iE inhibited GLUT1 in a similar manner to GLUT3. […] Moreover, G3iD affected all Class 1 GLUTs, having the best relative selectivity for GLUT4.
Figure 3 Effect of GLUT3 inhibitors on GLUT1, GLUT2, GLUT4, and GLUT5. The transport activity was assayed as the substrate uptake in hexose transporter-deficient yeast cells expressing functional GLUT1[65], GLUT2[69], GLUT4[65], or GLUT5[66]. […] Transport assay was initiated by the addition of C^14-labeled substrate and stopped after 10 min (see “Materials and methods” for details). (A–D) Effect of G3iA-G3iF, at 50 µM concentration, on the relative transport activities of GLUT1 (A), GLUT2 (B), GLUT4 (C), and GLUT5 (D). Standard deviations for experimental points come from at least three independent measurements.
The plasmids containing functional constructs of GLUT1-5 were transformed in the corresponding hxt^0 strains[65],[66],[73] (EBY.VW4000 for GLUT5S72Y, EBY.S7 for GLUT1, GLUT2∆loopS_Q455R, GLUT3 and GLUT3S66Y, and SDY.022 for GLUT4) and grown on 2% (w/v) agar plates of the respective media supplemented with 1% (w/v) maltose. An initial culture of ~ 10 ml was started with a few colonies and grown for 2–3 days if the media was SC-uracil with 1% (w/v) maltose (GLUT1, GLUT3, GLUT4) or 1–2 days if the media was YEP with 1% (w/v) maltose and 100 µg/ml geneticin G418 (GLUT2∆loopS_Q455R and GLUT5S72Y). […] Then, cells were transferred in the same media so that OD600nm ~ 0.5 and grown further for 1–2 days.
For transport activity assay, cells in the hexose media were centrifuged (1000×g, 5 min, room temperature), washed once with PBS buffer (10 mM Na2HPO4, 1.8 mM KH2PO4, 2.7 mM KCl, 137 mM NaCl, pH 7.4), and resuspended in PBS buffer at an OD600nm ~ 10; each assay contained 100 µl of this cell solution. […] Substrate uptake into cells was linear for more than 20 min. […] The filtration membranes were transferred into scintillation vials with 10 ml of Scintillation Solution (BioSafeII; Research Products International, Mount Prospect, IL, USA), and vortexed briefly. The radioactivity was determined with a scintillation counter (Tri-carb 2900TR, Perkin Elmer, USA). As all compounds were solubilized in dimethyl sulfoxide (DMSO), controls for determining the relative transport activity included 1% (v/v) DMSO to represent DMSO used as vehicle control (i.e., 100% activity), and known inhibitors at saturating concentrations, 200 µM phloretin for GLUT1-4[69],[82], and 100 µM N-[4-(methylsulfonyl)-2-nitrophenyl]-1,3-benzodioxol-5-amine (MSNBA) for GLUT5 (i.e., complete inhibition). […] Data were analyzed with GraphPad Prism (San Diego, CA, USA).
As to `Cc1cccnc1OC1CCN(c2cc(N3CCCC3CO)ncn2)CC1` (stereo not drawn) [G3iC], the IC50 was greater than 50 µM.

`O=C(Nc1cccc(Cl)c1)c1cccc(NC(=O)c2cccc([N+](=O)[O-])c2)c1` [G3iE, N-{3-[(3-chloroanilino)carbonyl]phenyl}-3-nitrobenzamide]: the IC50 was greater than 50 µM.

For the compound `Cc1cc(NC(=O)CCC2Cc3ccccc3NC2=O)nc(-c2ccccc2)n1` (stereo not drawn) [G3iD], the IC50 is greater than 50 µM.

In the case of `COc1ccccc1-n1c(/C=C/c2ccc(O)cc2)nc2ccc(Br)cc2c1=O` [G3iB, 6-bromo-2-[(E)-2-(4-hydroxyphenyl)ethenyl]-3-(2-methoxyphenyl)quinazolin-4(3H)-one], the IC50 was greater than 50 µM.

Consider `CC(=O)Nc1ccc(S(=O)(=O)Nc2ccc(Nc3cc(N(C)C)nc(C)n3)cc2)cc1` [G3iA, N-(4-{[(4-{[6-(dimethylamino)-2-methylpyrimidin-4-yl]amino}phenyl)amino]sulfonyl}phenyl)acetamide], for which the IC50 is greater than 50 µM.

As for `Cc1ccccc1CN(Cc1nnc(C(C)(C)C)o1)c1ccc2nc(O)[nH]c2c1` [G3iF], the IC50 was greater than 50 µM.

Source of the values: PMC8791944, “GLUT3 inhibitor discovery through in silico ligand screening and in vivo validation in eukaryotic expression systems” (Scientific Reports, 2022).
